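Growth conditions: 96-well plates. Treatment: test compound, 48 hours, 5 concentrations. Analysis: linear interpolation between bracketing concentrations; unreached endpoints set to highest concentration. Abbreviation: GI50, concentration required for 50% inhibition of growth.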 Activity calls are given as the source filed them. Cut-off read from the data, not from the text of the source: active = GI50 up to about 1.1 µM and inactive = higher.
Assays:
Test in all cases: NCI-60 cell line screen, 48 h
786-0 = tested on: 786-0
A498 = tested on: A498
CCRF-CEM = tested on: CCRF-CEM
DU-145 = tested on: DU-145
HCT-116 = tested on: HCT-116
Hs-578T = tested on: Hs-578T
MCF7 = tested on: MCF7
MDA-MB-435 = tested on: MDA-MB-435
MOLT-4 = tested on: MOLT-4
NCI-H226 = tested on: NCI-H226
OVCAR-3 = tested on: OVCAR-3
OVCAR-8 = tested on: OVCAR-8
PC-3 = tested on: PC-3
RPMI-8226 = tested on: RPMI-8226
SF-295 = tested on: SF-295
SK-MEL-5 = tested on: SK-MEL-5
SNB-19 = tested on: SNB-19
HCT-15 = tested on: HCT-15
SK-MEL-2 = tested on: SK-MEL-2
HCC 2998 = tested on: HCC 2998

Row | SMILES | GI50 (786-0) | GI50 (A498) | GI50 (CCRF-CEM) | GI50 (DU-145) | GI50 (HCT-116) | GI50 (Hs-578T) | GI50 (MCF7) | GI50 (MDA-MB-435) | GI50 (MOLT-4) | GI50 (NCI-H226) | GI50 (OVCAR-3) | GI50 (OVCAR-8) | GI50 (PC-3) | GI50 (RPMI-8226) | GI50 (SF-295) | GI50 (SK-MEL-5) | GI50 (SNB-19) | GI50 (HCT-15) | GI50 (SK-MEL-2) | GI50 (HCC 2998)
1 | C/C(=C/CC[C@]1(CO)CC[C@]2(CO)[C@H](CC[C@@H]3[C@@]4(C)CC[C@H](OC5OCC(O)C(O)C5OC5OC(CO)C(O)C(O)C5O)C(C)(C)[C@@H]4CC[C@]32C)[C@H]1O)CO (stereo partly specified) | > 100 µM (inactive) | > 100 µM (inactive) | > 100 µM (inactive) | > 100 µM (inactive) | > 100 µM (inactive) | > 100 µM (inactive) | > 100 µM (inactive) | > 100 µM (inactive) | > 100 µM (inactive) | > 100 µM (inactive) | > 100 µM (inactive) | > 100 µM (inactive) | > 100 µM (inactive) | > 100 µM (inactive) | > 100 µM (inactive) | > 100 µM (inactive) | > 100 µM (inactive) |  |  | 
2 | O=C1c2ccccc2C(=O)c2c1ccc(C1C(=O)c3ccccc3C1=O)c2-c1c(C2C(=O)c3ccccc3C2=O)ccc2c1C(=O)c1ccccc1C2=O | > 100 µM (inactive) | > 100 µM (inactive) |  | > 100 µM (inactive) | > 100 µM (inactive) | > 100 µM (inactive) | > 100 µM (inactive) | > 100 µM (inactive) | 19 µM (inactive) | > 100 µM (inactive) | > 100 µM (inactive) | > 100 µM (inactive) | > 100 µM (inactive) | 13.1 µM (inactive) | > 100 µM (inactive) | > 100 µM (inactive) | > 100 µM (inactive) | > 100 µM | > 100 µM (inactive) | 
3 | COc1ccc(-n2c3c(c4cc(O)ccc42)C(=O)c2ccccc2C3=O)cc1 | 1.72 µM (inactive) | 3.93 µM (inactive) |  | 19.1 µM (inactive) | 0.305 µM (active) | 7.24 µM (inactive) | 10.7 µM (inactive) | 13.8 µM (inactive) | 7.66 µM (inactive) |  | 8.38 µM (inactive) | 2.52 µM (inactive) | 5.32 µM (inactive) | 13.8 µM (inactive) | 2.86 µM (inactive) | 2.73 µM (inactive) | 6.65 µM (inactive) | > 100 µM | 5.75 µM (inactive) | 
4 | COc1cc(/C=N/c2ccc(Oc3ccc(Cl)cc3)c(Cl)c2)cc(OC)c1OC | 13.6 µM (inactive) |  | 12.4 µM (inactive) | 11.7 µM (inactive) | 13.8 µM (inactive) | 15.8 µM (inactive) | 29.6 µM (inactive) | 28.2 µM (inactive) | 24.9 µM (inactive) | 26.6 µM (inactive) | 20 µM (inactive) | 25.8 µM (inactive) | 14.3 µM (inactive) | 18.9 µM (inactive) | 18.2 µM (inactive) | 17.7 µM (inactive) | 21.8 µM (inactive) | 19.5 µM | 17.8 µM (inactive) | 19.3 µM (inactive)
5 | CC(CCOc1c2ccoc2cc2oc(=O)ccc12)C1=CC(=O)C(C)(C)O1 (stereo unspecified) | > 100 µM (inactive) |  | > 100 µM (inactive) | > 100 µM (inactive) | > 100 µM (inactive) | > 100 µM (inactive) | > 100 µM (inactive) | > 100 µM (inactive) | > 100 µM (inactive) | > 100 µM (inactive) | > 100 µM (inactive) | > 100 µM (inactive) | > 100 µM (inactive) | > 100 µM (inactive) | > 100 µM (inactive) | > 100 µM (inactive) | > 100 µM (inactive) | > 100 µM | > 100 µM (inactive) | > 100 µM (inactive)
6 | N=C(N)NC(CC(=O)O)c1ccccc1 (stereo unspecified) | > 100 µM (inactive) | > 100 µM (inactive) |  | > 100 µM (inactive) | > 100 µM (inactive) | > 100 µM (inactive) | > 100 µM (inactive) | > 100 µM (inactive) |  |  | > 100 µM (inactive) | > 100 µM (inactive) | > 100 µM (inactive) | > 100 µM (inactive) | > 100 µM (inactive) | > 100 µM (inactive) | > 100 µM (inactive) | > 100 µM | > 100 µM (inactive) | 
